Data taken from patent US20080089851A1, “Brown Algae Cell Lyophilisate, Method For The Obtention Thereof” (BIOTECHMARINE, priority 2005, published 2008).

How the values were obtained:
Details in all cases: for Capture of [^3H]choline: DPA 1 mM
[1] = tested on: microsomes of human keratinocytes; assay: Transport of lipids (choline), direct treatment of isolated microsomes; format: biochemical
Description: 7.1—Assessment of the Rate of Transport of Macromolecules (Glucids, Lipids and Proteins) in a System of Isolated Microsomes. Direct Effect of the BB Product on Isolated Microsomes:
The microsomes of human keratinocytes form a membrane fraction obtained by high-speed differential centrifugation of a cell homogenate. This preparation of microsomes requires the addition of exogenous cofactors such as NADPH.
7.1.2—Transport of Lipids
(§1) The obtained microsomes from human keratinocytes in culture were rinsed 3 times with 25 mM Tris buffer, then preincubated in 1 ml of the same buffer for 30 minutes at 37° C. This solution was then discarded and the microsomes were placed into the 25 mM Tris buffer containing [^3H] Choline with stirring in a water bath at 37° C. The capture of choline was stopped by addition of a lysis buffer containing (50 mM de Tris, 140 mM NaCl, 1.5 mM MgSO4, 0.5% Igepal-Ca-630, 0.2% SDS). The kinetics of incubation was performed between 30 and 120 seconds. Subsequently, the microsomes were rinsed 2 times with PBS then dissolved in NaOH (1M) at 4° C. over night. The radioactivity was determined with a scintillation counter.
The protein assay was carried out following the BRADFORD method. The increase in absorbance at 595 nm, determined with a spectrophotometer, is proportional to the protein concentration.

[2] = tested on: normal human keratinocytes; assay: Transport of lipids (choline), normal human keratinocytes; format: cell-based
Method: as §1
7.2—Assessment of the Rate of Transport of Macromolecules at the Level of Normal Human Keratinocytes
The applied method was that of explants allowing to obtain, from a biopsy of human skin, keratinocytes in primary cultures. The assays were carried out on keratinocytes between the 2nd and the 4th passage in order to ensure a reproductibility between the different experiences.
The keratinocytes were divided into multiwell plates (6 wells) at a rate of 10^5 cells per well in 1 ml of culture medium […] supplemented with insulin and hydrocortisone. The cells were incubated in the presence and absence of the investigated product.
7.2.2—Transport of Lipids
(§2) The membrane microsomes were separated by differential centrifugation.
The same protocol of capture of [3H] choline was used for the determination of the speed of transport of choline (cf. 6.1.2)

[3] = tested on: human keratinocytes in senescence; assay: Transport of lipids (choline), human keratinocytes in senescence; format: cell-based
Method: as §1
7.3—Assessment of the Rate of Transport of Macromolecules at the Level of Human Keratinocytes in Senescence
The senescence is a phenomenon of cellular aging, where the cells are arrested in the phase G1 of the cell cycle and never enter the synthesis phase leading to the cell division. Senescent cells are characterized by their slow metabolism at synthesis and transport of macromolecules levels.
The cells in culture deprived of serum stop their growth, but continue to progress through the cell cycle until they reach the phase G1.
The assays were performed on keratinocytes, between the 8th and the 10th passage, in order to ensure the presence of senescent cells at control cells level.
The keratinocytes were seeded in multiwell plates (6 wells) at a rate of 10^5 cells per well in 3 ml of culture medium […] supplemented with EGF, hydrocortisone, insulin and gentamicyn. Afterwards they are maintained for 5 days in incubator under CO2.
7.3.2—Transport of Lipids
as §2
The same protocol of capture of [3H] Choline was applied to the determination of the rate of transport of choline (cf. 6.1.2)

Compound: CN(C)CCOC(c1ccccc1)c1ccccc1 [DPA, Diphenhydramin]
- Capture of [^3H]choline ([1]; 30 s): 74 pmol/mg proteins
- Capture of [^3H]choline ([1]; 60 s): 105 pmol/mg proteins
- Capture of [^3H]choline ([1]; 90 s): 132 pmol/mg proteins
- Capture of [^3H]choline ([1]; 120 s): 142 pmol/mg proteins
- rate of transport of lipids (in words) ([1]; Diphenhydramin 1 mM alone): strongly inhibits
- Capture of [^3H]choline ([2]; 30 s): 92 pmol/mg proteins
- Capture of [^3H]choline ([2]; 60 s): 115 pmol/mg proteins
- Capture of [^3H]choline ([2]; 90 s): 143 pmol/mg proteins
- Capture of [^3H]choline ([2]; 120 s): 156 pmol/mg proteins
- rate of transport of lipids (in words) ([2]; Diphenhydramin 1 mM alone): moderately inhibits
- Capture of [^3H]choline ([3]; 30 s): 55 pmol/mg of proteins
- Capture of [^3H]choline ([3]; 60 s): 79 pmol/mg of proteins
- Capture of [^3H]choline ([3]; 120 s): 119 pmol/mg of proteins
- rate of transport of lipids (in words) ([3]; Diphenhydramin 1 mM alone): strongly inhibits
